Data from patent publication US12528802B2, “Heterocyclic compound” (Takeda Pharmaceutical Company Limited, priority 2019, dated 2026).

target: T1, glucosylceramide synthase (Homo sapiens, UniProt Q16739); test: Glucosylceramide synthase (GCS) enzyme assay, microsome fraction, C8 glucosylceramide quantified by Rapidfire MS/MS; format: biochemical; conditions: test compound 10 μM; 1.7 μM UDP-glucose, 3 μM C8 ceramide; room temperature 60 min; read-out: GCS enzyme inhibitory rate at 10 μM (%) (% of control)
T1 construct: made in house; host or cells: Expi293F cells (transient expression, pcDNA3.3-TOPO vector); microsome fraction used as enzyme source
T1 sequence (Q16739 1-394): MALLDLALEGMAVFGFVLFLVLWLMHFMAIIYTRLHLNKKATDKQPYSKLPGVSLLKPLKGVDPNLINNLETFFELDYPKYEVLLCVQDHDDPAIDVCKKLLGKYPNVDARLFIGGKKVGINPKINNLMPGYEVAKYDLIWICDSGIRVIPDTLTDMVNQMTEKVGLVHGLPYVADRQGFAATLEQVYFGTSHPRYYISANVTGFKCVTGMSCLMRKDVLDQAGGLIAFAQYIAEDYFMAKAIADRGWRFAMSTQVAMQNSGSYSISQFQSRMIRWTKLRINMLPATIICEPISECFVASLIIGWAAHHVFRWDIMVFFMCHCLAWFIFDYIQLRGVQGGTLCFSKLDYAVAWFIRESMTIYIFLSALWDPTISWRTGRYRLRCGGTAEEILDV
Summary of the method: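 Test compound, 10 μM final, was run against human GCS from transfected Expi293F microsome fractions, using substrate solution of 6 μM C8 ceramide (in DOPC liposomes) plus 3.4 μM UDP-glucose, pH 7.5 Tris buffer, 60 min, room temperature. Product C8 glucosylceramide measured by Rapidfire MS/MS against an internal standard, % inhibition referenced to no-enzyme and DMSO wells.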

Row | Compound | inhibition at 10 µM
1 | CN(C)C(=O)c1ccc(N2Cc3cnn(-c4ccc(F)cc4OCC(F)(F)F)c3C2)nc1 [Example 231, 6-{1-[4-fluoro-2-(2,2,2-trifluoroethoxy)phenyl]-4,6-dihydropyrrolo[3,4-c]pyrazol-5(1H)-yl}-N,N-dimethylpyridine-3-carboxamide] | 61%
2 | CC(C)(O)COc1ccc(N2Cc3c(ccnc3-c3ccccc3OCC(F)(F)F)C2=O)cn1 [Example 233, 2-[6-(2-hydroxy-2-methylpropoxy)pyridin-3-yl]-4-[2-(2,2,2-trifluoroethoxy)phenyl]-2,3-dihydro-1H-pyrrolo[3,4-c]pyridin-1-one] | 96%
3 | CC(C)(O)c1ccc(N2Cc3c(ccnc3-c3ccc(F)cc3OCC(F)(F)F)C2=O)nc1 [Example 234, 4-[4-fluoro-2-(2,2,2-trifluoroethoxy)phenyl]-2-[5-(2-hydroxypropan-2-yl)pyridin-2-yl]-2,3-dihydro-1H-pyrrolo[3,4-c]pyridin-1-one] | 99%
4 | Cn1cc2c(c(-c3ccccc3OCC(F)(F)F)c1=O)CN(c1ccc(OC(F)F)cc1)C2=O [Example 236, 2-[4-(difluoromethoxy)phenyl]-5-methyl-7-[2-(2,2,2-trifluoroethoxy)phenyl]-1H-pyrrolo[3,4-c]pyridine-3,6(2H,5H)-dione] | 100%
5 | N#CCc1ccc(N2Cc3c(ccnc3-c3ccc(F)cc3OCC(F)(F)F)C2=O)cc1 [Example 237, (4-{4-[4-fluoro-2-(2,2,2-trifluoroethoxy)phenyl]-1-oxo-1,3-dihydro-2H-pyrrolo[3,4-c]pyridin-2-yl}phenyl)acetonitrile] | 91%
6 | Cn1nc(N2Cc3c(ccnc3-c3ccc(F)cc3OCC(F)(F)F)C2=O)cc1C1CC1 [Example 239, 2-(5-cyclopropyl-1-methyl-1H-pyrazol-3-yl)-4-[4-fluoro-2-(2,2,2-trifluoroethoxy)phenyl]-2,3-dihydro-1H-pyrrolo[3,4-c]pyridin-1-one] | 51%
7 | CC(C)(O)c1ccc(N2Cc3c(ccnc3-c3ccc(F)cc3OCC(F)F)C2=O)cc1 [Example 241, 4-[2-(2,2-difluoroethoxy)-4-fluorophenyl]-2-[4-(2-hydroxypropan-2-yl)phenyl]-2,3-dihydro-1H-pyrrolo[3,4-c]pyridin-1-one] | 98%
8 | O=C1c2ccnc(-c3ccc(F)cc3OCC(F)(F)F)c2CN1c1ccc(C(O)(C(F)F)C(F)F)cc1 [Example 245, 4-[4-fluoro-2-(2,2,2-trifluoroethoxy)phenyl]-2-[4-(1,1,3,3-tetrafluoro-2-hydroxypropan-2-yl)phenyl]-2,3-dihydro-1H-pyrrolo[3,4-c]pyridin-1-one] | 100%
9 | O=C1c2ccnc(-c3ccccc3OCC(F)(F)F)c2CN1c1cnn(CC2(F)COC2)c1 [Example 247, 2-{1-[(3-fluorooxetan-3-yl)methyl]-1H-pyrazol-4-yl}-4-[2-(2,2,2-trifluoroethoxy)phenyl]-2,3-dihydro-1H-pyrrolo[3,4-c]pyridin-1-one] | 97%
10 | O=C1c2ccnc(-c3ccccc3OCC(F)(F)F)c2CN1c1cnn(CC2(F)CC2)c1 [Example 248, 2-{1-[(1-fluorocyclopropyl)methyl]-1H-pyrazol-4-yl}-4-[2-(2,2,2-trifluoroethoxy)phenyl]-2,3-dihydro-1H-pyrrolo[3,4-c]pyridin-1-one] | 99%
11 | CC(C)(CO)c1ccc(N2Cc3c(ccnc3-c3ccc(F)cc3OCC(F)(F)F)C2=O)cc1 [Example 253, 4-[4-fluoro-2-(2,2,2-trifluoroethoxy)phenyl]-2-[4-(1-hydroxy-2-methylpropan-2-yl)phenyl]-2,3-dihydro-1H-pyrrolo[3,4-c]pyridin-1-one] | 98%
12 | CC(C)(O)COc1ccc(N2Cc3c(ccnc3-c3ccc(F)cc3OCC(F)(F)F)C2=O)cc1 [Example 254, 4-[4-fluoro-2-(2,2,2-trifluoroethoxy)phenyl]-2-[4-(2-hydroxy-2-methylpropoxy)phenyl]-2,3-dihydro-1H-pyrrolo[3,4-c]pyridin-1-one] | 99%
13 | CC(C)(O)COc1ccc(N2Cc3c(ccnc3-c3ccc(F)cc3OCC(F)(F)F)C2=O)nc1 [Example 255, 4-[4-fluoro-2-(2,2,2-trifluoroethoxy)phenyl]-2-[5-(2-hydroxy-2-methylpropoxy)pyridin-2-yl]-2,3-dihydro-1H-pyrrolo[3,4-c]pyridin-1-one] | 100%
14 | O=C1c2ccnc(-c3ccc(F)cc3OCC(F)(F)F)c2CN1c1ccc(C2(O)CCOCC2)cn1 [Example 257, 4-[4-fluoro-2-(2,2,2-trifluoroethoxy)phenyl]-2-[5-(4-hydroxyoxan-4-yl)pyridin-2-yl]-2,3-dihydro-1H-pyrrolo[3,4-c]pyridin-1-one] | 99%
15 | CC(C)(C)[Si](C)(C)OC1(c2ccc(N3Cc4c(ccnc4-c4ccccc4OCC(F)(F)F)C3=O)nc2)CC1 [Example 266, 2-[5-(1-{[tert-butyl(dimethyl)silyl]oxy}cyclopropyl)pyridin-2-yl]-4-[2-(2,2,2-trifluoroethoxy)phenyl]-2,3-dihydro-1H-pyrrolo[3,4-c]pyridin-1-one] | 99%
16 | O=C1c2ccnc(-c3ccc(F)cc3OCC(F)F)c2CN1c1ccc(C2(O)CCC2)cc1 [Example 267, 4-[2-(2,2-difluoroethoxy)-4-fluorophenyl]-2-[4-(1-hydroxycyclobutyl)phenyl]-2,3-dihydro-1H-pyrrolo[3,4-c]pyridin-1-one] | 99%
17 | CS(=O)(=O)c1ccc(N2Cc3c(ccnc3-c3ccccc3OCC(F)(F)F)C2=O)nc1 [Example 268, 2-[5-(methanesulfonyl)pyridin-2-yl]-4-[2-(2,2,2-trifluoroethoxy)phenyl]-2,3-dihydro-1H-pyrrolo[3,4-c]pyridin-1-one] | 91%

The next lines start with the values.

Row | inhibition at 10 µM | Compound
18 | 100% | O=C1c2ccnc(-c3ccccc3OCC(F)(F)F)c2CN1c1ccc(C2(O)CCOCC2)cc1 [Example 242, 2-[4-(4-hydroxyoxan-4-yl)phenyl]-4-[2-(2,2,2-trifluoroethoxy)phenyl]-2,3-dihydro-1H-pyrrolo[3,4-c]pyridin-1-one]
19 | 89% | N#CC1(c2ccc(N3Cc4c(ccnc4-c4ccc(F)cc4OCC(F)(F)F)C3=O)cc2)CC1 [Example 244, 1-(4-{4-[4-fluoro-2-(2,2,2-trifluoroethoxy)phenyl]-1-oxo-1,3-dihydro-2H-pyrrolo[3,4-c]pyridin-2-yl}phenyl)cyclopropane-1-carbonitrile]
20 | 100% | O=C1c2ccnc(-c3ccccc3OCC(F)(F)F)c2CN1c1ccc(C(O)(C(F)F)C(F)F)cc1 [Example 246, 2-[4-(1,1,3,3-tetrafluoro-2-hydroxypropan-2-yl)phenyl]-4-[2-(2,2,2-trifluoroethoxy)phenyl]-2,3-dihydro-1H-pyrrolo[3,4-c]pyridin-1-one]
21 | 98% | O=C1c2ccnc(-c3ccccc3OCC(F)(F)F)c2CN1c1ccc(C2(O)COC2)cn1 [Example 252, 2-[5-(3-hydroxyoxetan-3-yl)pyridin-2-yl]-4-[2-(2,2,2-trifluoroethoxy)phenyl]-2,3-dihydro-1H-pyrrolo[3,4-c]pyridin-1-one]
22 | 70% | CC(=O)N1CC(O)(c2ccc(N3Cc4c(ccnc4-c4ccccc4OCC(F)(F)F)C3=O)cc2)C1 [Example 258, 2-[4-(1-acetyl-3-hydroxyazetidin-3-yl)phenyl]-4-[2-(2,2,2-trifluoroethoxy)phenyl]-2,3-dihydro-1H-pyrrolo[3,4-c]pyridin-1-one]
23 | 85% | O=C1c2ccnc(-c3ccccc3OCC(F)(F)F)c2CN1c1ccc(C2(O)CNC2)cc1 [Example 259, 2-[4-(3-hydroxyazetidin-3-yl)phenyl]-4-[2-(2,2,2-trifluoroethoxy)phenyl]-2,3-dihydro-1H-pyrrolo[3,4-c]pyridin-1-one]
24 | 100% | O=C1c2ccnc(-c3ccccc3OCC(F)(F)F)c2CN1c1ccc(C(O)(C(F)(F)F)C(F)(F)F)cc1 [Example 260, 2-[4-(1,1,1,3,3,3-hexafluoro-2-hydroxypropan-2-yl)phenyl]-4-[2-(2,2,2-trifluoroethoxy)phenyl]-2,3-dihydro-1H-pyrrolo[3,4-c]pyridin-1-one]
25 | 93% | O=C(C1CC1)N1CC(O)(c2ccc(N3Cc4c(ccnc4-c4ccccc4OCC(F)(F)F)C3=O)cc2)C1 [Example 261, 2-{4-[1-(cyclopropanecarbonyl)-3-hydroxyazetidin-3-yl]phenyl}-4-[2-(2,2,2-trifluoroethoxy)phenyl]-2,3-dihydro-1H-pyrrolo[3,4-c]pyridin-1-one]
26 | 100% | CC(C)(O)c1ccc(N2Cc3c(ccnc3-c3ccccc3OCC(F)(F)F)C2=O)cc1F [Example 262, 2-[3-fluoro-4-(2-hydroxypropan-2-yl)phenyl]-4-[2-(2,2,2-trifluoroethoxy)phenyl]-2,3-dihydro-1H-pyrrolo[3,4-c]pyridin-1-one]
27 | 100% | O=C1c2ccnc(-c3ccccc3OCC(F)(F)F)c2CN1c1ccc(C2(O)CC2)cn1 [Example 265, 2-[5-(1-hydroxycyclopropyl)pyridin-2-yl]-4-[2-(2,2,2-trifluoroethoxy)phenyl]-2,3-dihydro-1H-pyrrolo[3,4-c]pyridin-1-one]
